Experimental data reported in PubChem BioAssay (NCI).
Values joined by “and” are separate entries in the source; they are usually repeats but may differ in a detail not shown here. Equal entries are not always repeated.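 Protocol summary: plate cells (96-well), add compound at 5 concentrations, incubate 48 h, interpolate endpoints linearly. The concentration for 50% growth inhibition is given as GI50. TGI marks complete inhibition of growth.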

Columns and labels:
Experiment in all cases: inhibition of tumour cell growth, NCI panel, 48 h
[1] = tested on: IGROV1 ovarian
[2] = tested on: OVCAR-3 ovarian
[3] = tested on: SN12C renal
[4] = tested on: HCT-15 colon
[5] = tested on: SK-MEL-5 melanoma
[6] = tested on: SF-539 CNS
[7] = tested on: MALME-3M melanoma
[8] = tested on: T-47D breast
[9] = tested on: TK-10 renal
[10] = tested on: HCT-116 colon

SMILES	GI50 [1]	TGI [1]	GI50 [2]	TGI [2]	GI50 [3]	TGI [3]	GI50 [4]	TGI [4]	GI50 [5]	TGI [5]	GI50 [6]	TGI [6]	GI50 [7]	TGI [7]	GI50 [8]	TGI [8]	GI50 [9]	TGI [9]	GI50 [10]	TGI [10]
O=C1c2cccc3cccc(c23)C(=O)N1CCCCCN1CCN(CCCCCOc2ccc(-c3nc4ccc(N5CCOCC5)cc4[nH]3)cc2)CC1	1.76 µM	8.08 µM	6.07 µM	11.2 µM	> 100 µM	> 100 µM	2.62 µM	8.63 µM	6.43 µM	19.9 µM	10.6 µM	29 µM	17.7 µM	40 µM	2.01 µM	7.71 µM	8.24 µM	14.8 µM	5.06 µM	> 100 µM
C/C(=N\NC(=S)N1CCCCCC1)c1ccccn1	< 0.0122 µM	2.66 µM and 6.59 µM	–	0.172 µM	0.0246 µM	4.31 µM and 5.6 µM	0.0497 µM	1.99 µM and 4.43 µM	0.0209 µM	1.09 µM and 0.741 µM	0.143 µM	1.74 µM and 2.26 µM	0.0966 µM	1.17 µM and 1.72 µM	–	8.43 µM and 7.58 µM	–	8.56 µM and 7.56 µM	–	3.16 µM and 4.28 µM
O=c1[nH]c2ccc(O)cc2o1	–	> 100 µM	–	> 100 µM	–	> 100 µM	–	> 100 µM	–	> 100 µM	–	> 100 µM	–	> 100 µM	–	> 100 µM	–	> 100 µM	–	> 100 µM
COC(=O)c1ccc(-c2c(C#N)[n+](=O)c3cc(Cl)c(Cl)cc3n2[O-])cc1	3.39 µM	> 100 µM	11 µM	27.8 µM	14.7 µM	29.3 µM	11.1 µM	91.2 µM	22 µM	47.7 µM	19.7 µM	40.5 µM	20 µM	44.3 µM	2.48 µM	6.08 µM	33.6 µM	95.1 µM	13.3 µM	> 100 µM
CN(C)c1ccc(N=Nc2ccccn2)c(O)c1	0.317 µM	> 100 µM	0.3 µM	> 100 µM	0.396 µM	> 100 µM	0.112 µM	> 100 µM	0.433 µM	3.35 µM	0.355 µM	8.44 µM	1.44 µM	> 100 µM	0.419 µM	> 49.1 µM	0.177 µM	43.9 µM	0.254 µM	> 71.7 µM
CC12CCC3c4ccc(O)cc4CCC3C1C/C(=N\O)C2O (stereo unspecified)	–	> 100 µM	–	> 100 µM	–	> 100 µM	–	> 100 µM	–	> 100 µM	–	> 100 µM	–	> 100 µM	–	> 100 µM	–	> 100 µM	–	> 100 µM
O=C(NNc1ccccc1)C(=O)NNc1ccccc1	> 100 µM	> 100 µM	17.7 µM	> 100 µM	> 100 µM	> 100 µM	0.746 µM	> 100 µM	10.8 µM	> 100 µM	2.63 µM	14.5 µM	> 100 µM	> 100 µM	0.52 µM	> 100 µM	0.919 µM	> 100 µM	6.42 µM	> 100 µM
BrCc1cccc(C[P+](c2ccccc2)(c2ccccc2)c2ccccc2)c1	21.6 µM	> 100 µM	10.8 µM	> 100 µM	18.4 µM	> 100 µM	> 100 µM	> 100 µM	5.14 µM	24 µM	6.05 µM	> 100 µM	82.8 µM	> 100 µM	3.99 µM	> 100 µM	12.5 µM	> 100 µM	6.02 µM	> 100 µM
